Measurements reported in paper PMC10343475, “Systematic Modification of the Substitution Pattern of the 7-Hydroxy-5-oxopyrazolo[4,3-b]pyridine-6-carboxamide Scaffold Enabled the Discovery of New Ligands with High Affinity and Selectivity for the Cannabinoid Type 2 Receptor” (Molecules, 2023).
“And” between values parts separate entries of the source, which are not always exact repeats. Identical values can stand only once. Like-named read-outs stand apart in the source and are kept apart here.

Experiments:
[1] = biological target: human recombinant CB1 receptor (Homo sapiens, UniProt P21554); test: Competition binding assay, displacement of [3H]-CP-55,940, CB1R
Chain of human recombinant CB1 receptor (P21554 whole entry): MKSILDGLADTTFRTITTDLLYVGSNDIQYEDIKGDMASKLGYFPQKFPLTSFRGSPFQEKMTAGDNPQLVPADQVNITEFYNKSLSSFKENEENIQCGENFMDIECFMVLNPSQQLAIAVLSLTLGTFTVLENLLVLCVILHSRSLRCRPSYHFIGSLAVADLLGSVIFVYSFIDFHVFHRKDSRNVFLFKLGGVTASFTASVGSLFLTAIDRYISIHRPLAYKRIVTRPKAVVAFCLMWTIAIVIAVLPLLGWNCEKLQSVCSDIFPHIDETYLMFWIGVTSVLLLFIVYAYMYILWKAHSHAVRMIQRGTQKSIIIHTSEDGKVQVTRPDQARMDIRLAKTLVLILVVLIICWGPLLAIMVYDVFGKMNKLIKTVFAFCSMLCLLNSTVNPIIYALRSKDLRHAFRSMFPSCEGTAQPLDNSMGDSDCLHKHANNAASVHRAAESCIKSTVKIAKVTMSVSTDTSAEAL
Experimental: (§1) Binding at equilibrium was performed as previously reported. […] All compounds were tested following the procedure described by the manufacturer (Perkin Elmer, Italy). […] Ki values were calculated by applying the Cheng–Prusoff equation to the IC50 values (obtained by GraphPad) for the displacement of the bound radioligand by increasing concentrations of the test compound.

human CB2 receptor [2] = biological target: T1, human CB2 receptor (Homo sapiens, UniProt P34972); test: Competition binding assay, displacement of [3H]-CP-55,940, CB2R; set-up: logKiCB2 (nM) Exp.: unit not given here
T1 sequence (P34972 whole entry): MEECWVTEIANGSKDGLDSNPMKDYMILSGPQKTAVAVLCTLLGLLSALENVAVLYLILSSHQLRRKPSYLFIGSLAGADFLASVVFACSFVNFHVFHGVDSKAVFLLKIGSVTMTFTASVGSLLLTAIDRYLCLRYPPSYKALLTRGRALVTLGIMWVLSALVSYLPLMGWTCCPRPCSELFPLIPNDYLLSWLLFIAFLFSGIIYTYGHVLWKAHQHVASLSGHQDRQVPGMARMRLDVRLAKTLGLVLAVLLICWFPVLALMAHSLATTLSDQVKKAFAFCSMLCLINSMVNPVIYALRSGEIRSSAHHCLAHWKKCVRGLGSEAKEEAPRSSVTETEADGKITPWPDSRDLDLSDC
Experimental: as §1

human CB2 receptor [3] = biological target: T1, human CB2 receptor; test: cAMP Hunter functional assay in NKH-477-stimulated CHO-K1 cells overexpressing CB2R; conditions: for Functional behavior at CB2R: agonist mode / antagonist mode with JWH-133 4 µM challenge
[4] = membranes from HEK cells, [3H]CP-55,940, mean ± SD, at least three experiments in duplicate, read-out: CB1R Ki
[5] = membranes from HEK cells, [3H]CP-55,940, mean ± SD, at least three experiments in duplicate, read-out: CB2R Ki
[6] = CB2R Ki, membranes from HEK cells, [3H]CP-55,940, mean ± SD, at least three experiments in duplicate

Row | Compound | Ki [1, 4] | Ki (human CB2 receptor [2]; [5]) | Ki (human CB2 receptor [2]; [6]) | logKiCB2 (nM) Exp. (human CB2 receptor [2]; log of experimental Ki) | SI (selectivity index for CB2R, Ki(CB1R)/Ki(CB2R)) (human CB2 receptor [2]) | also measured
1 | CC(C)n1c(=O)c(C(=O)NC23CC4CC(CC(O)(C4)C2)C3)c(O)c2nn(C)cc21 [Compound 22, 7-Hydroxy-N-(1-hydroxyadamantan-3-yl)-4-isopropyl-2-methyl-5-oxo-4,5-dihydro-2H-pyrazolo[4,3-b]pyridine-6-carboxamide] | > 10 µM | > 10000 nM | – | – | – | –
2 | CCCCn1c(=O)c(C(=O)NC23CC4CC(CC(C4)C2)C3)c(O)c2nn(C)c(C)c21 [Compound 54, N-(Adamantan-1-yl)-4-(1-butyl)-7-hydroxy-2,3-dimethyl-5-oxo-4,5-dihydro-2H-pyrazolo[4,3-b]pyridine-6-carboxamide] | > 10 µM | – | < 20 nM and 2.16 nM | 0.33 | – | CB1 receptor activity in words [1]: not active at all; melting point: 213 to 216 °C
3 | CCn1cc2c(n1)c(O)c(C(=O)NC13CC4CC(CC(C4)C1)C3)c(=O)n2CC [Compound 33, N-(Adamantan-1-yl)-2,4-diethyl-7-hydroxy-5-oxo-4,5-dihydro-2H-pyrazolo[4,3-b]pyridine-6-carboxamide] | > 10 µM | 24 ± 15.3 nM | – | 1.38 | >416 | melting point: 245 to 247 °C
4 | CCCCn1c(=O)c(C(=O)NC(C)(C)C)c(O)c2nn(C)cc21 [Compound 13, 4-(1-Butyl)-N-(tert-butyl)-7-hydroxy-2-methyl-5-oxo-4,5-dihydro-2H-pyrazolo[4,3-b]pyridine-6-carboxamide] | > 10 µM | > 10000 nM | – | – | – | –
5 | CC(C)n1c(=O)c(C(=O)NC23CC4CC(CC(C4)C2)C3)c(O)c2c1cnn2CC#N [Compound 60] | > 10 µM | 48.5 ± 10.9 nM | – | 1.68 | >206 | –
6 | Cc1c2c(nn1C)c(O)c(C(=O)NC13CC4CC(CC(C4)C1)C3)c(=O)n2C(C)C [Compound 53, N-(Adamantan-1-yl)-7-hydroxy-4-isopropyl-2,3-dimethyl-5-oxo-4,5-dihydro-2H-pyrazolo[4,3-b]pyridine-6-carboxamide] | > 10 µM | > 10000 nM | – | – | – | CB2 receptor affinity in words (human CB2 receptor [2]): inactive; melting point: > 260 °C
7 | CCCCn1c(=O)c(C(=O)N[C@@H](Cc2ccccc2)C(=O)OC(C)(C)C)c(O)c2nn(C)cc21 [Compound 20, tert-Butyl (4-Butyl-7-hydroxy-2-methyl-5-oxo-4,5-dihydro-2H-pyrazolo[4,3-b]pyridine-6-carbonyl)-L-phenylalaninate] | > 10 µM | > 10000 nM | – | – | – | –
8 | CCCCn1c(=O)c(C(=O)NC23CC4CC(CC(C4)C2)C3)c(O)c2nn(CC)cc21 [Compound 35, N-(Adamantan-1-yl)-4-(1-butyl)-2-ethyl-7-hydroxy-5-oxo-4,5-dihydro-2H-pyrazolo[4,3-b]pyridine-6-carboxamide] | 0.102 ± 0.0152 µM | – | < 20 nM and 0.45 nM | −0.35 | 227 | Functional behavior at CB2R (human CB2 receptor [3]): antagonist/inverse agonist behavior
9 | CC(C)n1c(=O)c(C(=O)NC23CC4CC(CC(C4)C2)C3)c(O)c2n[nH]cc21 [Compound 56] | > 10 µM | > 10000 nM | – | – | – | CB2 receptor affinity in words (human CB2 receptor [2]): inactive
10 | CC(C)n1c(=O)c(C(=O)NC23CC4CC(CC(C4)C2)C3)c(O)c2nn(C)cc21 [Compound 21, N-(Adamantan-1-yl)-7-hydroxy-4-isopropyl-2-methyl-5-oxo-4,5-dihydro-2H-pyrazolo[4,3-b]pyridine-6-carboxamide] | – | – | > 10000 nM | – | – | Ki [1]: > 10 µM
11 | COc1ccc(Cn2c(=O)c(C(=O)NC34CC5CC(CC(C5)C3)C4)c(O)c3nn(C)cc32)c(OC)c1 [Compound 27, N-(Adamantan-1-yl)-4-(2,4-dimethoxybenzyl)-7-hydroxy-2-methyl-5-oxo-4,5-dihydro-2H-pyrazolo[4,3-b]pyridine-6-carboxamide] | > 10 µM | > 10000 nM | – | – | – | CB2 receptor affinity in words (human CB2 receptor [2]): completely inactive; melting point: > 270 °C
12 | CC(C)n1c(=O)c(C(=O)NC2CCCc3ccccc32)c(O)c2nn(C)cc21 (stereo not drawn) [Compound 24, 7-Hydroxy-4-isopropyl-2-methyl-5-oxo-N-(1,2,3,4-tetrahydronaphthalen-1-yl)-4,5-dihydro-2H-pyrazolo[4,3-b]pyridine-6-carboxamide] | > 10 µM | > 10000 nM | – | – | – | –
13 | CCCCn1c(=O)c(C(=O)NC2CCCCCCC2)c(O)c2nn(C)cc21 [Compound 15, 4-(1-Butyl)-N-cyclooctyl-7-hydroxy-2-methyl-5-oxo-4,5-dihydro-2H-pyrazolo[4,3-b]pyridine-6-carboxamide] | > 10 µM | – | < 20 nM and 9.03 nM | – | >1107 | Ki (human CB2 receptor [2]; logKiCB2 (nM) Exp., log of experimental Ki): 14.5 nM; Functional behavior at CB2R (human CB2 receptor [3]): antagonist/inverse agonist behavior
14 | CC(C)n1c(=O)c(C(=O)NC23CC4CC(CC(C4)C2)C3)c(O)c2nn(CC(=O)OC(C)(C)C)cc21 [Compound 61] | > 10 µM | > 10000 nM | – | – | – | CB2 receptor affinity in words (human CB2 receptor [2]): inactive
15 | C#CCn1ncc2c1c(O)c(C(=O)NC13CC4CC(CC(C4)C1)C3)c(=O)n2C(C)C [Compound 58] | – | – | 61.8 ± 20.8 nM | 1.79 | >162 | Ki [1]: > 10 µM
16 | CCCCn1c(=O)c(C(=O)NC(c2ccccc2)c2ccccc2)c(O)c2nn(C)cc21 [Compound 19, N-Benzhydryl-4-(1-butyl)-7-hydroxy-2-methyl-5-oxo-4,5-dihydro-2H-pyrazolo[4,3-b]pyridine-6-carboxamide] | > 10 µM | 142 ± 110 nM | – | 2.15 | >70 | –
17 | CCCCn1c(=O)c(C(=O)Nc2ccc(F)cc2)c(O)c2nn(C)cc21 [Compound 16, 4-(1-Butyl)-N-(4-fluorophenyl)-7-hydroxy-2-methyl-5-oxo-4,5-dihydro-2H-pyrazolo[4,3-b]pyridine-6-carboxamide] | > 10 µM | > 10000 nM | – | – | – | –
18 | CCCCn1c(=O)c(C(=O)NC(C)(C)C)c(O)c2nn(CC)cc21 [Compound 34, 4-(1-Butyl)-N-(tert-butyl)-2-ethyl-7-hydroxy-5-oxo-4,5-dihydro-2H-pyrazolo[4,3-b]pyridine-6-carboxamide] | > 10 µM | 106 ± 18.1 nM | – | 2.02 | >95 | –
19 | CC(C)n1c(=O)c(C(=O)NC23CC4CC(CC(C4)C2)C3)c(O)c2c1cnn2C [Compound 57] | – | – | 54.3 ± 12.3 nM | 1.73 | >184 | Ki [1]: > 10 µM; EC50 (human CB2 receptor [3]): 1.59 µM; Functional behavior at CB2R (human CB2 receptor [3]): typical agonist behavior; Emax (human CB2 receptor [3]; agonist mode, 25 µM NKH477): 84.05
20 | CC(C)n1c(=O)c(C(=O)NC(c2ccccc2)c2ccccc2)c(O)c2nn(C)cc21 [Compound 25, N-Benzhydryl-7-hydroxy-4-isopropyl-2-methyl-5-oxo-4,5-dihydro-2H-pyrazolo[4,3-b]pyridine-6-carboxamide] | > 10 µM | > 10000 nM | – | – | – | –
21 | CCCCn1c(=O)c(C(=O)NC23CC4CC(CC(C4)C2)C3)c(O)c2c1c(C)nn2C [Compound 51, N-(Adamantan-1-yl)-4-(1-butyl)-7-hydroxy-1,3-dimethyl-5-oxo-4,5-dihydro-1H-pyrazolo[4,3-b]pyridine-6-carboxamide] | > 10 µM | – | 35.6 ± 19.5 nM | 1.55 | >280 | melting point: 162 to 165 °C
22 | CCCCn1c(=O)c(C(=O)NC2CCCC2)c(O)c2nn(C)cc21 [Compound 14, 4-(1-Butyl)-N-cyclopentyl-7-hydroxy-2-methyl-5-oxo-4,5-dihydro-2H-pyrazolo[4,3-b]pyridine-6-carboxamide] | > 10 µM | > 10000 nM | – | – | – | –
23 | CC(C)n1c(=O)c(C(=O)NC2CCCCCCC2)c(O)c2nn(C)cc21 [Compound 23, N-Cyclooctyl-7-hydroxy-4-isopropyl-2-methyl-5-oxo-4,5-dihydro-2H-pyrazolo[4,3-b]pyridine-6-carboxamide] | > 10 µM | > 10000 nM | – | – | – | –
24 | CCCCn1c(=O)c(C(=O)NCc2ccc(F)cc2)c(O)c2nn(C)cc21 [Compound 17, 4-(1-Butyl)-N-(4-fluorobenzyl)-7-hydroxy-2-methyl-5-oxo-4,5-dihydro-2H-pyrazolo[4,3-b]pyridine-6-carboxamide] | > 10 µM | > 10000 nM | – | – | – | –
25 | CC(C)n1c(=O)c(C(=O)NC23CC4CC(CC(C4)C2)C3)c(O)c2nn(Cc3ccc(F)cc3)cc21 [Compound 62] | > 10 µM | > 10000 nM | – | – | – | CB2 receptor affinity in words (human CB2 receptor [2]): inactive
26 | C#CCn1cc2c(n1)c(O)c(C(=O)NC13CC4CC(CC(C4)C1)C3)c(=O)n2C(C)C [Compound 59] | – | – | > 10000 nM | – | – | Ki [1]: > 10 µM; CB2 receptor affinity in words (human CB2 receptor [2]): inactive
27 | CCCCCn1c(=O)c(C(=O)NC23CC4CC(CC(C4)C2)C3)c(O)c2c1c(C)nn2C [Compound 52, N-(Adamantan-1-yl)-7-hydroxy-1,3-dimethyl-5-oxo-4-(1-pentyl)-4,5-dihydro-1H-pyrazolo[4,3-b]pyridine-6-carboxamide] | > 10 µM | – | 34.1 ± 4.88 nM | 1.53 | >293 | melting point: 167 to 169 °C
